Experimental findings from PubChem BioAssay (NCI) are described below.

SMILES strings stand for the structures.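 Method: 48-hour compound exposure of cells in 96-well plates, five concentrations, linear interpolation of endpoints. GI50 marks 50% less growth. TGI: concentration producing complete growth inhibition.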

Test systems include OVCAR-8 ovarian; KM12 colon; SK-MEL-5 melanoma; U251 CNS; HOP-92 NSCLC; HCC-2998 colon.
What all share (assay): inhibition of tumour cell growth, NCI panel, 48 h

As to `Cc1ccc2c(c1)C(=O)/C(=C/c1ncc([N+](=O)[O-])n1C)O2`, the GI50 is 0.481 µM in the assay on OVCAR-8 ovarian; 1.67 µM with KM12 colon; 1.14 µM in the assay with SK-MEL-5 melanoma; 1.93 µM in the assay on U251 CNS; 2.24 µM with HOP-92 NSCLC; 2.29 µM with HCC-2998 colon. Besides, the TGI in the assay on OVCAR-8 ovarian was 7 µM; in the assay with KM12 colon, 5.21 µM; in the assay on SK-MEL-5 melanoma it was 2.51 µM; in the assay on U251 CNS, 5.32 µM; with HOP-92 NSCLC it was over 19.8 µM; in the assay on HCC-2998 colon it was 5.4 µM.
For `Cc1cc(I)cc(CNCCCN2CCSCC2)c1O`, the GI50 with OVCAR-8 ovarian was 17.4 µM; in the assay on KM12 colon it was 16.9 µM; in the assay with SK-MEL-5 melanoma, 10.7 µM; in the assay on U251 CNS it was 16.4 µM; in the assay on HOP-92 NSCLC, 7.57 µM; in the assay with HCC-2998 colon, 12.7 µM. The TGI with OVCAR-8 ovarian came to 34 µM; in the assay on KM12 colon, 35.9 µM; with SK-MEL-5 melanoma, 22.5 µM; in the assay with U251 CNS, 31 µM; with HOP-92 NSCLC, 22.3 µM; with HCC-2998 colon it was 26.9 µM.
As for `O=C1NNC=Nc2ccc(cc2)S(=O)(=O)c2ccc(cc2)N=CNNC1=O`, the TGI in the assay on OVCAR-8 ovarian, with KM12 colon, in the assay with SK-MEL-5 melanoma, in the assay on U251 CNS, with HOP-92 NSCLC and in the assay with HCC-2998 colon was over 100 µM in each case.
Regarding `O=NN(Cc1ccc(Cl)cc1)C(C(=O)O)c1ccccc1` (stereo not given), the TGI with OVCAR-8 ovarian, with KM12 colon, with SK-MEL-5 melanoma, with U251 CNS, in the assay on HOP-92 NSCLC and with HCC-2998 colon was over 100 µM each time.
As for `COc1ccc(C2=NN(C(=O)c3cc(OC)c(OC)c(OC)c3)C(c3ccc(C#N)cc3)C2)cc1OC` (stereo not given), the GI50 with OVCAR-8 ovarian was 3.26 µM; in the assay with KM12 colon, 1.16 µM; in the assay with SK-MEL-5 melanoma, 0.483 µM; with U251 CNS it was 1.18 µM; in the assay with HOP-92 NSCLC it was 0.113 µM; with HCC-2998 colon it was 2.16 µM. Besides, the TGI with OVCAR-8 ovarian was over 42.7 µM; in the assay with KM12 colon, over 27.3 µM; in the assay on SK-MEL-5 melanoma, 6.67 µM; in the assay on U251 CNS it was over 34.6 µM; with HOP-92 NSCLC, 0.792 µM; in the assay with HCC-2998 colon, 6.63 µM.
`Cn1cc(-c2cnc3ccc(NC(=O)Nc4ccc(F)c(Br)c4)cc3n2)cn1`: the GI50 in the assay on OVCAR-8 ovarian is 1.83 µM; in the assay with KM12 colon, 1.71 µM; in the assay with SK-MEL-5 melanoma, 1.63 µM; in the assay with U251 CNS, 1.76 µM; in the assay on HOP-92 NSCLC, 1.6 µM; with HCC-2998 colon it was 1.79 µM. In addition, the TGI is 4.34 µM in the assay on OVCAR-8 ovarian; 3.65 µM in the assay with KM12 colon; 3.03 µM with SK-MEL-5 melanoma; 3.88 µM in the assay on U251 CNS; 4.41 µM in the assay on HOP-92 NSCLC; 3.5 µM in the assay with HCC-2998 colon.
Take `O=C(O)CCCCC(CCSCc1ccccc1)SCc1ccccc1` (stereo not given): the GI50 with OVCAR-8 ovarian is over 63.6 µM; in the assay with KM12 colon, 35.2 µM; in the assay on SK-MEL-5 melanoma, 53.5 µM; with U251 CNS it was 47.9 µM; in the assay with HOP-92 NSCLC, 29.3 µM; with HCC-2998 colon it was 34.8 µM. Besides, the TGI was over 100 µM with OVCAR-8 ovarian; over 100 µM with KM12 colon; over 100 µM with SK-MEL-5 melanoma; over 100 µM in the assay with U251 CNS; over 81.6 µM in the assay with HOP-92 NSCLC; over 100 µM in the assay on HCC-2998 colon.
In the case of `Cc1ccc(-c2c3c([nH]c(=O)c2C#N)-c2cc(F)ccc2OC3)cc1`, the GI50 with OVCAR-8 ovarian is over 100 µM; with KM12 colon it was 36.1 µM; in the assay on SK-MEL-5 melanoma it was 41.8 µM; in the assay on U251 CNS it was 46.2 µM; in the assay on HOP-92 NSCLC, over 100 µM. For the same compound, the TGI in the assay with OVCAR-8 ovarian, with KM12 colon, with SK-MEL-5 melanoma, in the assay on U251 CNS and with HOP-92 NSCLC was over 100 µM throughout.
On to `O=C1c2cccc(NCCN=Cc3cc(O)ccc3O)c2C(=O)c2c(NCCN=Cc3cc(O)ccc3O)cccc21`, for which the GI50 with OVCAR-8 ovarian was 0.884 µM; with U251 CNS, 0.739 µM; in the assay with HOP-92 NSCLC, 1.29 µM; with HCC-2998 colon it was 1.39 µM. Also, the TGI in the assay on OVCAR-8 ovarian turned out to be 3.21 µM; with U251 CNS it was 2.56 µM; with HOP-92 NSCLC, 4.87 µM; with HCC-2998 colon, 2.93 µM.
Turning to `Cc1nn(CN2CCN(C)CC2)c(=S)n1/N=C/c1cccc2ccccc12`, the GI50 was 19.1 µM in the assay with OVCAR-8 ovarian; 19.3 µM in the assay with KM12 colon; 16.9 µM in the assay on SK-MEL-5 melanoma; 19.9 µM in the assay with HOP-92 NSCLC; 20.9 µM with HCC-2998 colon. Moreover, the TGI in the assay with OVCAR-8 ovarian turned out to be 37 µM; in the assay on KM12 colon it was 41.4 µM; in the assay with SK-MEL-5 melanoma, 32.1 µM; in the assay with HOP-92 NSCLC it was 46.5 µM; in the assay with HCC-2998 colon, 39 µM.
As to `COc1cc(OC)cc(-c2ccc(-c3ccc(C(=N)N)o3)o2)c1`, the GI50 was 3.75 µM in the assay with OVCAR-8 ovarian; 2.45 µM in the assay with KM12 colon; 1.95 µM in the assay with SK-MEL-5 melanoma; 2.45 µM in the assay with U251 CNS; 2.05 µM in the assay with HCC-2998 colon. Moreover, the TGI came to 14 µM in the assay on OVCAR-8 ovarian; 6.56 µM with KM12 colon; 3.39 µM in the assay on SK-MEL-5 melanoma; 5.91 µM with U251 CNS; 3.94 µM in the assay on HCC-2998 colon.
As to `O=C(O)Cn1ccc(=O)c2ccc([N+](=O)[O-])cc21`, the TGI with OVCAR-8 ovarian, in the assay on KM12 colon, in the assay with SK-MEL-5 melanoma, in the assay on U251 CNS and in the assay on HCC-2998 colon was over 100 µM each time.
For the compound `O=C(c1ccco1)c1nc2ccc(C(F)(F)F)cc2[n+]([O-])c1C(F)(F)F`, the GI50 in the assay on OVCAR-8 ovarian is 50 µM; in the assay with KM12 colon it was 67.7 µM; in the assay on SK-MEL-5 melanoma it was 31.6 µM; in the assay with U251 CNS, 52.6 µM; in the assay on HCC-2998 colon, 85.6 µM. For the same compound, the TGI in the assay on OVCAR-8 ovarian, with KM12 colon, in the assay with SK-MEL-5 melanoma, with U251 CNS and with HCC-2998 colon was over 100 µM each time.
`COc1cc(/C=C/c2cc(/C=C/c3ccc(O)c(OC)c3)n(-c3ccccc3)n2)ccc1O`: the GI50 with OVCAR-8 ovarian was 0.466 µM; in the assay on KM12 colon, 0.315 µM; in the assay with SK-MEL-5 melanoma it was 0.252 µM; in the assay with HOP-92 NSCLC, 0.452 µM; in the assay on HCC-2998 colon, 0.605 µM. Moreover, the TGI in the assay with OVCAR-8 ovarian is 3.55 µM; in the assay with KM12 colon it was 1.29 µM; with SK-MEL-5 melanoma, 1.36 µM; in the assay with HOP-92 NSCLC, 4.25 µM; in the assay on HCC-2998 colon, 2.46 µM.
